Experimental findings from patent US6737435B1, “Indole derivatives and their use as MCP-1 antagonist” (AstraZeneca AB, priority 1999, dated 2004) are described below.

Assay [1] has as its system THP-1 cells. As to the kind of experiment: MCP-1 mediated calcium flux in THP-1 cells. Format: cell-based, human. The note with it: stimulation of THP-1 cells with hMCP-1, FURA-2; read-out: EC50 of rise in [Ca2+]i. The method, then:
The human monocytic cell line THP-1 was grown in a synthetic cell culture medium RPMI 1640 supplemented with 10% foetal calf serum, 6 mM glutamine and Penicillin-Streptomycin (at 50 μg streptomycin/ml, Gibco BRL). THP-1 cells were washed in HBSS (lacking Ca^2+ and Mg^2+)+1 mg/ml BSA and resuspended in the same buffer at a density of 3×10^6 cells/ml. The cells were then loaded with […] FURA-2/AM for 30 min at 37° C., washed twice in HBSS, and resuspended at 1×10^6 cells/ml. THP-1 cell suspension (0.9 ml) was added to a 5 ml disposable cuvette containing a magnetic stirrer bar and 2.1 ml of prewarmed (37° C.) HBSS containing 1 mg/ml BSA, 1 mM MgCl2 and 2 mM CaCl2. The cuvette was placed in a fluorescence spectrophotometer (Perkin Elmer, Norwalk, Conn.) and preincubated for 4 min at 37° C. with stirring. Fluorescence was recorded over 70 sec and cells were stimulated by addition of hMCP-1 to the cuvette after 10 sec. [Ca^2+]i was measured by excitation at 340 nm and 380 nm alternately and subsequent measurement of the intensity of the fluorescence emission at 510 nm.
where the Kd for FURA-2 Ca^2+ complex at 37° C. was taken to be 224 nm. […]
A general note: A change in cytosolic calcium serves as a functional read-out for many receptors and channels.

Assay [2] has as its system THP-1 cells. As to the kind of experiment: hMCP-1 mediated chemotaxis. Format: cell-based, human. The note with it: biphasic response. The method, then:
In vitro chemotaxis assays were performed using the human monocytic cell line THP-1. Cell migration through polycarbonate membranes was measured by enumerating those passing through either directly by Coulter counting or indirectly by use of a colourimetric viability assay measuring the cleavage of a tetrazolium salt by the mitochondrial respiratory chain (Scudiero D. A. et al. 1988, Cancer Res., 48, 4827-4833).
Chemoattractants were introduced into a 96-well microtitre plate which forms the lower well of a chemotaxis chamber fitted with a PVP-free 5 μm poresize polycarbonate adhesive framed filter membrane (NeuroProbe MB series, Cabin John, Md. 20818, USA) according to the manufacturer's instructions. […] The plate was incubated at 37° C. for 3 h and the absorbance of the soluble formazan product was read on a microtitre plate reader at 450 nm. The data was input into a spreadsheet, corrected for any random migration in the absence of chemoattractant and the average absorbance values, standard error of the mean, and significance tests were calculated. hMCP-1 induced concentration dependent cell migration with a characteristic biphasic response, maximal […]. […]

Another assay deals with T1, MCP-1 receptor B (CCR2B) (Homo sapiens, UniProt P41597).
T1 construct: expressed in transfected cells; host or cells: CHO-K1 (clone 7, CHO-CCR2B), stably transfected with pCDNA3/CCR2B; membrane fragments
T1 sequence (P41597 1-360 isoform P41597-2): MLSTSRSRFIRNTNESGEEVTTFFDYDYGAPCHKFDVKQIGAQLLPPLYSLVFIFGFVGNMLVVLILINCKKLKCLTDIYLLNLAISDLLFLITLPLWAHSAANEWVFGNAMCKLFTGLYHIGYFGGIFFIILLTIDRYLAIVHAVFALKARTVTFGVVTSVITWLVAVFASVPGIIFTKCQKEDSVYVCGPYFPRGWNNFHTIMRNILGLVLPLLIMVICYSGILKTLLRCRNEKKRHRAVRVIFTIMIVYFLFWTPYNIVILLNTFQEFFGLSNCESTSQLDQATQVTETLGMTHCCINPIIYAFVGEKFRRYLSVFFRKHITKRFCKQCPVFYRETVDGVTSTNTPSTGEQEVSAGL
The assay can be described thus: hMCP-1 receptor binding assay (125I-MCP-1, CHO-CCR2B cell membranes). From the text:
The MCP-1 receptor B (CCR2B) cDNA was cloned by PCR from THP-1 cell RNA using suitable oligonucleotide primers based on the published MCP-1 receptor sequences (Charo et al., 1994, Proc. Natl. Acad. Sci. USA, 91, 2752). The resulting PCR products were cloned into vector PCR-II™ (InVitrogen, San Diego, Calif.). Error free CCR2B cDNA was subcloned as a Hind III-Not I fragment into the eukaryotic expression vector pCDNA3 (InVitrogen) to generate pCDNA3/CC-CKR2A and pCDNA3/CCR2B respectively.
Linearised pCDNA3/CCR2B DNA was transfected into CHO-K1 cells by calcium phosphate precipitation (Wigler et al., 1979, Cell, 16, 777). Transfected cells were selected by the addition of Geneticin Sulphate (G418, Gibco BRL) at 1 mg/ml, 24 hours after the cells had been transfected. Preparation of RNA and Northern blotting were carried out as described previously (Needham et al., 1995, Prot. Express. Purific., 6, 134). CHO-K1 clone 7 (CHO-CCR2B) was identified as the highest MCP-1 receptor B expresser.
CHO-CCR2B cells were grown in DMEM supplemented with 10% foetal calf serum, 2 mM glutamine, 1×Non-Essential Amino Acids, 1×Hypoxanthine and Thymidine Supplement and Penicillin-Streptomycin (at 50 μg streptomycin/ml, Gibco BRL). Membrane fragments were prepared using cell lysis/differential centrifugation methods as described previously (Siciliano et al., 1990, J. Biol. Chem., 265, 19658). […]

The term EC50 denotes the concentration at which the effect is half-maximal. By IC50 is commonly meant the concentration needed to halve the response being measured. A low value points to greater potency. Broadly, the Kd is the constant that tells how readily two partners part at equilibrium. Low readings indicate tighter binding, high ones weaker binding. “MCP-1: Human Monocyte Chemoattractant Protein-1, the chemokine ligand of the CCR2 receptor”: the EC50 with THP-1 cells [1] was approximately 2000 pM. The “concentration of maximal cell migration” value in the assay on THP-1 cells [2] is listed as 0.5-1.0 nm. This substance registered an IC50 with MCP-1 receptor B (CCR2B) (cold competition, 100 pM 125I-labeled MCP-1, CHO-CCR2B membrane fragments) of 110 pM. Moreover, the Kd with MCP-1 receptor B (CCR2B) (equilibrium binding, CHO-CCR2B membrane fragments) was determined as 120 pM.
